{
  "source": "patent EP4721758A1",
  "about": "“NOVEL MEDICINE FOR TREATING OSTEOSARCOMA” (Japanese Foundation For Cancer Research, priority 2023, dated 2024)",
  "test_system": "osteosarcoma cells",
  "assay": "Cell viability after 1 µM obatoclax or navitoclax (CellTiter-Glo)",
  "format": "cell-based, human",
  "details": "72 hours, 11 types of osteosarcoma cells, Fig. 1B",
  "description": "Among these five compounds, obatoclax, a pan-BH3 mimetic, was further investigated. Specifically, the osteosarcoma cells (the above described 11 types of osteosarcoma cells) were seeded in triplicate at a density of 2000 cells/well on 96-well plates (Greiner) or type I collagen-coated plates (IWAKI) and cultured for at least 24 hours. The osteosarcoma cells (i.e., the above described 11 types) were then treated with 1 µ(micro)M obatoclax for 72 hours, after which cell viability was measured using the CellTiter-Glo assay reagent.",
  "data": [
    {"smiles": "CC1(C)CCC(c2ccc(Cl)cc2)=C(CN2CCN(c3ccc(C(=O)NS(=O)(=O)c4ccc(N[C@H](CCN5CCOCC5)CSc5ccccc5)c(S(=O)(=O)C(F)(F)F)c4)cc3)CC2)C1", "note": "[navitoclax]", "values": [
      {"measurement": "cell viability", "result": "little effect on osteosarcoma cell proliferation"}
    ]}
  ]
}
